We go through twelve molecules from US20210317490A1, “ANTICANCER COMPOUNDS” (priority 2017, published 2021).

The subject of one data set is HeLa cells. The following applies: cited from earlier work.
In a further data set the test system is B104 cells. The following applies: cited from earlier work.
The test system of another data set is MDA-MB-231. Nature of the data set: SRB colorimetric cytotoxicity assay, MDA-MB-231. The following applies: MDA-MB-231, 72 hours treatment; for GI50 / LC50 (concentration giving 50% net cell killing): Homo sapiens; for GI50: 50% cell growth inhibition; for TGI: total cell growth inhibition. It is filed as cell-based, human. From the text: (§1) The aim of this assay is to evaluate the in vitro cytostatic (ability to delay or arrest tumor cell growth) or cytotoxic (ability to kill tumor cells) activity of the samples being tested.
(§2) A colorimetric assay, using sulforhodamine B (SRB) reaction has been adapted to provide a quantitative measurement of cell growth and viability (following the technique described by Skehan et al. J. Natl. Cancer Inst. 1990, 82, 1107-1112).
(§3) This form of assay employs 96-well cell culture microplates following the standards of the American National Standards Institute and the Society for Laboratory Automation and Screening (ANSI SLAS 1-2004 (R2012) 10/12/2011). All the cell lines used in this study were obtained from the American Type Culture Collection (ATCC) and derive from different types of human cancer.
(§4) Cells were maintained in Dulbecco's Modified Eagle Medium (DMEM) supplemented with 10% Fetal Bovine Serum (FBS), 2mM L-glutamine, 100 U/mL penicillin and 100 U/mL streptomycin at 37 ° C., 5% CO2 and 98% humidity. For the experiments, cells were harvested from subconfluent cultures using trypsinization and resuspended in fresh medium before counting and plating.
(§5) Cells were seeded in 96 well microtiter plates, at 5000 cells per well in aliquots of 150 μL and allowed to attach to the plate surface for 18 hours (overnight) in drug free medium. After that, one control (untreated) plate of each cell line was fixed (as described below) and used for time zero reference value. Culture plates were then treated with test compounds (50 μL aliquots of 4× stock solutions in complete culture medium plus 4% DMSO) using ten 2/5 serial dilutions (concentrations ranging from 10 to 0.003 μg/mL) and triplicate cultures (1% final concentration in DMSO). After 72 hours treatment, the antitumor effect was measured by using the SRB methodology: Briefly, cells were washed twice with PBS, fixed for 15 min in 1% glutaraldehyde solution at room temperature, rinsed twice in PBS, and stained in 0.4% SRB solution for 30 min at room temperature. Cells were then rinsed several times with 1% acetic acid solution and air-dried at room temperature. SRB was then extracted in 10 mM trizma base solution and the absorbance measured in an automated spectrophotometric plate reader at 490 nm. Effects on cell growth and survival were estimated by applying the NCI algorithm (Boyd M R and Paull K D. Drug Dev. Res. 1995, 34, 91-104).
(§6) The values obtained in triplicate cultures were fitted to a four-parameter logistic curve by nonlinear regression analysis. Three reference parameters were calculated (according to the NCI algorithm) by automatic interpolation of the curves obtained from such fitting: GI50=compound concentration that produces 50% cell growth inhibition, as compared to control cultures; TGI=total cell growth inhibition (cytostatic effect), as compared to control cultures, and LC50=compound concentration that produces 50% net cell killing cytotoxic effect).

For another data set, the system named is A549. Nature of the data set: SRB colorimetric cytotoxicity assay, A549. It is filed as cell-based, human. The following applies: A549, 72 hours treatment; for TGI: total cell growth inhibition; for GI50 / CC50: Homo sapiens; for GI50: 50% cell growth inhibition; for CC50: 50% net cell killing, read-out: LC50 (the source's name).
From the text: as §1, §2, §3, §4, §5, §6

A further data set concerns PSN-1. Nature of the data set: SRB colorimetric cytotoxicity assay, PSN1. Format: cell-based, human. The following applies: for GI50 / CC50: Homo sapiens, PSN1, PSN-1, 72 hours treatment; for GI50: 50% cell growth inhibition; for CC50: 50% net cell killing, read-out: LC50 (the source's name); for TGI: PSN-1, 72 hours treatment, total cell growth inhibition.
From the text: as §1, §2, §3, §4, §5, §6

In another data set the test system is HT29. As to the kind of experiment: SRB colorimetric cytotoxicity assay, HT29. The following applies: for TGI: HT29, 72 hours treatment, total cell growth inhibition; for GI50 / CC50: Homo sapiens, HT-29, HT29, 72 hours treatment; for GI50: 50% cell growth inhibition; for CC50: 50% net cell killing, read-out: LC50 (the source's name). It is filed as cell-based, human.
From the text: as §1, §2, §3, §4, §5, §6

In data set [1] the test system is P-388 murine leukemia cell line. The following applies: cited from earlier work; for IC50 against the P-388 murine leukemia cell line: mycalamides, J. Nat. Prod. 2000, 63, 704.
In data set [2] the test system is EUE, E6D, HeLa, KB, Hep, AS, MEF, CE, BHK, Z1 and M1 cell lines. To be noted: within four days, in all the cell lines analyzed; cited from earlier work.
For data set [3] the following is noted: toxicity lower than pederin; cited from earlier work.

≈ marks a conversion by molar mass, not a printed value.

As a reminder, the IC50 is the concentration needed to halve the response being measured. A word on the GI50: it is the concentration at which growth is held to half of that of the control. A low value points to greater sensitivity of the cells. The TGI is the concentration giving total growth inhibition.

`C=C1C[C@](OC)([C@H](O)C(=O)N[C@@H](O)[C@@H]2C[C@@H](O)C(C)(C)[C@@H](C[C@H](O)CO)O2)O[C@H](C)[C@@H]1C` [diaphorin]: the IC50 in the data set on HeLa cells is roughly 2000 nM; in the data set on B104 cells, roughly 1000 nM.

For `C=C1CC(OC)(C(O)C(=O)NC(OC)C2CC(O)C(C)(C)C(CC(O)CO)O2)OC(C)C1C` (stereo not shown) [Compound 2], in the data set with MDA-MB-231, the GI50 came out at 8.2 nM, the LC50 (concentration giving 50% net cell killing) came out at 31.5 nM and the total growth inhibition concentration (TGI) was 15.6 nM. Moreover, in the data set with A549, the concentration for total growth inhibition (TGI) came to 25.2 nM, the GI50 stood at 7.15 nM and the CC50 is 122 nM. In the data set on PSN-1, growth was halved (GI50) at 8.62 nM, the CC50 came to 77.8 nM and the total growth inhibition concentration (TGI) came to 19.1 nM. In addition, in the data set with HT29, the TGI was determined as 44.2 nM, it took 8.83 nM to inhibit growth by half (GI50) and the CC50 is greater than 2100 nM.

In the case of `C=C1C[C@](OC)([C@H](O)C(=O)NC[C@@H]2C[C@H](O)C(C)(C)[C@@H](C[C@H](O)CCC/C=C/C=C/C=C/C(=O)N[C@@H](CCCNC(=N)N)C(=O)O)O2)O[C@H](C)[C@@H]1C` [Onnamide E], in data set [1] (at a concentration of 0.4 μg/mL), the “cytotoxic activity against the P388 cell line” value is on record as “did not show cytotoxic activity”.

Turning to `C=C1C[C@](OC)([C@H](O)C(=O)N[C@H]2OCO[C@H]3[C@@H]2O[C@H](C[C@H](O)CO)C(C)(C)[C@@H]3OC)O[C@H](C)[C@@H]1C` [Mycalamide A], the “IC50 against the P-388 murine leukemia cell line” value in data set [1] was 3.0 ng/mL (≈ 5.96 nM).

Turning to `C=C1C[C@](OC)([C@H](O)C(=O)N[C@H]2OCO[C@H]3[C@@H]2O[C@H](C[C@H](O)CCC/C=C/C=C/C=C/C(=O)N[C@@H](CCCNC(=N)N)C(=O)O)C(C)(C)[C@@H]3OC)O[C@H](C)[C@@H]1C` [Onnamide A], the “IC50 against the murine P388 cell line” value in data set [1] (U.S. Pat. No. 4,801,606) was 1 ng/mL (≈ 1.26 nM).

With `C=C1C[C@](OC)([C@H](O)C(=O)NC[C@H]2O[C@H](CO)C(C)(C)[C@H](O)[C@H]2O)O[C@H](C)[C@@H]1C` [Mycalamide C], the “IC50 against the P-388 murine leukemia cell line” value in data set [1] is recorded as 95.0 ng/mL (≈ 228 nM).

`C=C1C[C@](OC)([C@H](O)C(=O)N[C@@H](OC)[C@@H]2C[C@@H](O)C(C)(C)[C@@H](CC(COC)OC)O2)O[C@H](C)[C@@H]1C` (stereo partly shown) [pederin]: the “concentration sufficient to cause cellular death” value in data set [2] is roughly 3 nM.

With `C=C1C[C@](OC)([C@H](O)C(=O)N[C@H]2OCO[C@H]3[C@@H]2O[C@H](CC(CO)OC)C(C)(C)[C@@H]3OC)O[C@H](C)[C@@H]1C` (stereo partly shown) [Mycalamide B], the “IC50 against the P-388 murine leukemia cell line” value in [1] was 0.7 ng/mL (≈ 1.35 nM).

With `C=C1C[C@](OC)([C@H](O)C(=O)N[C@H]2OCO[C@H]3[C@@H]2O[C@H](C[C@H](O)CO)C(C)(C)[C@@H]3O)O[C@H](C)[C@@H]1C` [Mycalamide D], the “IC50 against the P-388 murine leukemia cell line” value in data set [1] is listed as 35 ng/mL (≈ 71.5 nM).

For `C=C1CC(OC)(C(OC(C)=O)C(=O)NC(OC)C2CC(OC(C)=O)C(C)(C)C(CC(COC(C)=O)OC)O2)OC(C)C1C` (stereo not shown) [Compound 3], in the data set with MDA-MB-231, the concentration for 50% growth inhibition (GI50) amounted to 309 nM, the LC50 (concentration giving 50% net cell killing) was greater than 16200 nM and the TGI turned out to be 2440 nM. In addition, in the data set with A549, the concentration for total growth inhibition (TGI) is 877 nM, halving of growth (GI50) required 115 nM and the CC50 came out at 8610 nM. In addition, in the data set with PSN-1, the GI50 turned out to be 162 nM, the CC50 was 3900 nM and the concentration for total growth inhibition (TGI) was 666 nM. Besides, in the data set with HT29, the TGI stood at 926 nM, the GI50 stood at 162 nM and the CC50 is greater than 16200 nM.

`C=C1C[C@](O)([C@H](O)C(=O)N[C@@H](OC)[C@@H]2C[C@@H](O)C(C)(C)[C@@H](C[C@@H](COC)OC)O2)O[C@H](C)[C@@H]1C` [Pseudopederin, pseudopederin]: in data set [3], the “active dose relative to pederin” value was 10 times higher.

For `C=C1CC(OC)(C(O)C(=O)NC(OC)C2CC(O)C(C)(C)C(CC(CO)OC)O2)OC(C)C1C` (stereo not shown) [Compound 1], the GI50 worked out at 2.66 nM with MDA-MB-231, 2.04 nM with A549, 2.66 nM in the data set on PSN-1 and 2.86 nM in the data set on HT29. Moreover, in the data set on MDA-MB-231, the LC50 (concentration giving 50% net cell killing) came out at 10.8 nM. For the same molecule, the TGI with MDA-MB-231 amounted to 5.31 nM; in the data set on A549, 7.97 nM; in the data set with PSN-1, 5.72 nM; in the data set with HT29 it was 8.99 nM. The CC50 in the data set on A549 is 36.8 nM; in the data set with PSN-1, 19.4 nM; in the data set with HT29, greater than 204 nM.
